Assay results as given in patent US20090181003A1, “Regulation of S6 Kinsase Protein Activity and Related Methods” (priority 2005, published 2009).

How the values were obtained:
S6 kinases = experiment: S6 kinase acetylation in HEK 293 cells cotransfected with EE-tagged S6 kinases and p300 (anti-acetylated lysine immunoblot); assay type: cell-based; conditions: HEK 293 cells with overexpressed p300; TSA 660 nM for 12 hours
Protocol: In FIG. 2A, recombinant S6 kinases were acetylated in vitro using the purified acetyltransferase domain of p300 or full length PCAF and ^14C-labelled acetyl CoA. Proteins were resolved by SDS-PAGE and acetylated proteins were analysed by phosphorimaging (Bio-rad). In FIG. 2B, recombinant S6K2 or GST were subject to in vitro acetylation reactions with p300 and 14C AcCoA. Recombinant PKB/Akt, PKCa, PDK1 and PI3K (p85a/p110a) were purified using baculovirus expression system. In vitro acetylation assay was carried out as previously described. In FIG. 2D, HEK 293 cells were transfected with S6 kinases in the absence or presence of Gal4-p300 as shown. Cells were treated with medium containing either solvent control or TSA to a final concentration of 660 nM for twelve hours prior to harvesting. Recombinant S6 kinases were immunoprecipitated using the EE-antibody and acetylated S6 kinase was detected by western blotting with polyclonal acetylated lysine antibodies (Upstate). The level of immunoprecipitated S6K1 and S6K2 was analysed by reprobing the membranes with specific antibodies. The expression of Gal4-p300 was tested in total lysates using anti-Gal4 antibodies.
In order to test whether S6 kinase proteins are subject to acetylation within cells, HEK 293 cells were cotransfected with EE-tagged S6 kinases and p300. […]

S6 kinase = S6 kinase activation in C2C12 myoblasts by western blotting (pT412, phospho-rpS6), TSA dose course; assay type: cell-based; conditions: 18 hours, doses of 500 nM TSA and above
Protocol: In FIG. 6A (upper panel), C2C12 myoblasts were treated for 18 hours with increasing concentrations of TSA or with the structurally unrelated HDAC inhibitor, sodium butyrate. Endogenous S6 kinase activity was assessed by western blotting against pT412 and against phosho-rpS6. In another experiment, C2C12 cells were treated with 1 μM TSA or control for the times shown and S6 kinase activity was measured by in vitro kinase assay using purified ribosomes as substrate (FIG. 6B). A representative autoradiograph is shown beneath the graph.
Since phosphorylation of multiple residues in S6 kinases has a potent effect on their kinase activity, it was interesting to see whether acetylation, an alternative post-translational modification, may also modulate the S6 kinase enzyme activity. Although kinase acetylation has not been described to date, there are examples of enzymes whose activity is regulated by p300-mediated acetylation, including Fen 1 (Hasan et al. (2001) Mol. Cell. 7, 1221-1231) and DNA polymerase beta (Hasan et al. (2002) Mol. Cell. 10, 1213-1222). In order to test whether S6 kinase acetylation may affect its kinase activity in vivo, C2C12 myoblasts were treated with a dose course of TSA. S6 kinase activation was analysed by western blotting with an antibody specific for phospho-threonine 412 and also with an antibody against the phosphorylated form of rpS6. […]

S6K = S6K activity after deacetylase inhibition in a range of cell types (western blot, immune complex kinase assay); assay type: cell-based
Protocol: (§1) (A) The cell lines indicated (see text) were treated with TSA and nicotinamide for eight hours. Following lysis, proteins were resolved by SDS-PAGE and western blots were probed as labelled to evaluate S6K activation. (B) MKOC cells (see text) were treated as in (A) and analysed by western blotting. S6K1 was also immunoprecipitated from lysates and subjected to immune complex kinase assay.
(§2) Histone deacetylase inhibitors downregulate S6K activity in a range of different cell types. In order to test the model that S6K acetylation may be playing a role in its de-activation, the effect of TSA on S6K activity was analysed in a number of cell types, some of which contain mutations in the pathways leading to S6K activation, thus affording a genetic analysis of this phenomenon. […] PC-3 is a PTEN-null prostate cancer cell line in which basal PKB and S6K activation is high due to deregulation of PI3K signalling. […] The MKOC cell line was derived from a renal tumour removed from a Tsc2^−/− mouse. Since these cells lack Tsc2, S6K activity is uncoupled from both PKB and the tuberous sclerosis complex heterodimer. […] It should be noted that, although the same trend (reduced S6K phosphorylation and activity following treatment with deacetylase inhibitors) is seen in all the cell lines tested, the magnitude of this effect does vary. […]

4EBP1 (target of mTOR) = experiment: Phospho-4EBP1 blotting in MKOC cells; assay type: cell-based, mouse; conditions: TSA treatment
Protocol: as §1, §2

[1] = biological target: T1, recombinant purified S6K1 (Homo sapiens, UniProt P23443); experiment: In vitro kinase assay with recombinant purified S6K in presence or absence of deacetylase inhibitors; assay type: biochemical; conditions: presence or absence of TSA and nicotinamide
T1 construct: made in house; host or cells: insect cells (baculovirus)
Protocol: as §1
Firstly, that TSA is not a specific inhibitor of HDAC activity but that it is also a direct S6K inhibitor in the classical sense. […] In order to test the former explanation, that TSA is a direct S6K inhibitor, in vitro kinase assays were conducted using recombinant purified S6K in the presence or absence of TSA and nicotinamide (FIG. 6C).

S6K1 K516 acetylation = S6K1 K516 acetylation in serum-stimulated NIH 3T3 cells treated with signal transduction inhibitors (Ac-K516 immunoblot); assay type: cell-based; conditions: 50 nM Rapamycin, 20 μM LY294002 or 10 μM PD98059 30 minutes before serum stimulation, lysed after 1 hr
Protocol: In this study, NIN3T3 cells were starved and stimulated with serum for various period of time. Total cell lysates were separated by SDS-PAGE and immunoblotted with acetyl-K516 antibodies. In FIG. 10B, the effect of various cell signalling inhibitors on K516 acetylation is shown. In this study, NIH3T3 cells were starved and treated with 50 nM Rapamycin (mTor inhibitor), 20 μM LY294002 (phosphatidylinositol 3′-kinase inhibitor), 10 μM PD98059 (MAP kinase inhibitor) or vehicle alone thirty minutes before stimulation with serum. Then, cells were stimulated with serum for one hour and lysed. The supernatants of total lysates were separated by SDS-PAGE and Western blotted with acetyl-K516 antibodies. […] The wtS6K and K516R mutants were transiently expressed in Hek293 cells. Immunoprecipitated recombinant S6Ks and total cell lysates were resolved by gel electrophoresis and immunoblotted with antibodies specific for EE tag, pT412 and actin.
Furthermore, the effect of signal transduction inhibitors on K516 acetylation was studied in NIH 3T3 cell. In this experiment, cells were serum starved and treated with rapamycin, LY and PD for 30 minutes before serum stimulation. Cells were lysed 1 hr hour after stimulation and the lysates separated by SDS-PAGE and immunoblotted with Ac-K516, pT412 antibodies.

T1 sequence (P23443 whole entry): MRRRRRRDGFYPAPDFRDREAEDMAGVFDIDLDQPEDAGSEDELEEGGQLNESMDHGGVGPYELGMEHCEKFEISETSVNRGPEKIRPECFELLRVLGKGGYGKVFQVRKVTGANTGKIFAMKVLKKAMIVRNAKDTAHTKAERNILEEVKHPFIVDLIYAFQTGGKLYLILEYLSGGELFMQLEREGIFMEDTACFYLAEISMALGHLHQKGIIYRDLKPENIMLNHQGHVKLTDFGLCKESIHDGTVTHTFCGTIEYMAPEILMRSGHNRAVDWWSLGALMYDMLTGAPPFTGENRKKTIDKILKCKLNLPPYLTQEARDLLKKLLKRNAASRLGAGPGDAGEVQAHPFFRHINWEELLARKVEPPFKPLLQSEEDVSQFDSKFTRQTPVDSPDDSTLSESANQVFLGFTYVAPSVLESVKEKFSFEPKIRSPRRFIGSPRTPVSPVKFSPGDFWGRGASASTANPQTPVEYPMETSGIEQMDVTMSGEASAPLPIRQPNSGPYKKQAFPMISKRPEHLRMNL

CC(/C=C/C(=O)NO)=C\[C@@H](C)C(=O)c1ccc(N(C)C)cc1 [TSA, Trichostatin A]
level of S6 kinase acetylation (S6 kinases): significantly increased | S6 kinase activation (phospho-threonine 412 and S6 protein phosphorylation) (S6 kinase): potently inhibited | S6K activity (S6K; MKOC cells (Tsc2-/- mouse renal tumour)): reduction of S6K activity | S6K activity (S6K; PC-3 cells (PTEN-null prostate cancer cell line)): inhibited | phospho-4EBP1 phosphorylation status (4EBP1 (target of mTOR)): unaffected | S6K activity in vitro (direct kinase inhibition) [1]: does not indicate that TSA inhibits S6K activity in vitro

COc1cccc(-c2cc(=O)c3ccccc3o2)c1N [PD98059]
acetylation of S6K1 at K516 (S6K1 K516 acetylation): not affected
